From the kinase profiling compilation of Christmann-Franck et al. (2016)
Each block holds one molecule with its values, some of them ahead of it.

Legend:
Experiment in all cases: radiometric filter-binding kinase assay
[1] = test system: AKT1 (human), P31749 [S473D]; settings: ATP 5 µM
AURKC (human) = AURKC (human) (UniProt Q9UQB9); settings: ATP 5 µM
CAMKK1 (human) = CAMKK1 (human) (UniProt Q8N5S9); settings: ATP 20 µM
CAMKK2 (human) = CAMKK2 (human) (UniProt Q96RR4); settings: ATP 20 µM
CHEK2 (human) = CHEK2 (human) (UniProt O96017); settings: ATP 20 µM
[2] = biological target: CSNK2A1 or CSNK2A2 (human) (UniProt P19784+P68400); settings: ATP 5 µM
DYRK1A (human) = DYRK1A (human) (UniProt Q13627); settings: ATP 50 µM
DYRK2 (human) = DYRK2 (human) (UniProt Q92630); settings: ATP 50 µM
DYRK3 (human) = DYRK3 (human) (UniProt O43781); settings: ATP 5 µM
GSK3B (human) = GSK3B (human) (UniProt P49841); settings: ATP 5 µM
HIPK3 (human) = HIPK3 (human) (UniProt Q9H422); settings: ATP 20 µM
IKBKB (human) = IKBKB (human) (UniProt O14920); settings: ATP 5 µM
Sequence of IKBKB (human) (O14920 whole entry, looked up): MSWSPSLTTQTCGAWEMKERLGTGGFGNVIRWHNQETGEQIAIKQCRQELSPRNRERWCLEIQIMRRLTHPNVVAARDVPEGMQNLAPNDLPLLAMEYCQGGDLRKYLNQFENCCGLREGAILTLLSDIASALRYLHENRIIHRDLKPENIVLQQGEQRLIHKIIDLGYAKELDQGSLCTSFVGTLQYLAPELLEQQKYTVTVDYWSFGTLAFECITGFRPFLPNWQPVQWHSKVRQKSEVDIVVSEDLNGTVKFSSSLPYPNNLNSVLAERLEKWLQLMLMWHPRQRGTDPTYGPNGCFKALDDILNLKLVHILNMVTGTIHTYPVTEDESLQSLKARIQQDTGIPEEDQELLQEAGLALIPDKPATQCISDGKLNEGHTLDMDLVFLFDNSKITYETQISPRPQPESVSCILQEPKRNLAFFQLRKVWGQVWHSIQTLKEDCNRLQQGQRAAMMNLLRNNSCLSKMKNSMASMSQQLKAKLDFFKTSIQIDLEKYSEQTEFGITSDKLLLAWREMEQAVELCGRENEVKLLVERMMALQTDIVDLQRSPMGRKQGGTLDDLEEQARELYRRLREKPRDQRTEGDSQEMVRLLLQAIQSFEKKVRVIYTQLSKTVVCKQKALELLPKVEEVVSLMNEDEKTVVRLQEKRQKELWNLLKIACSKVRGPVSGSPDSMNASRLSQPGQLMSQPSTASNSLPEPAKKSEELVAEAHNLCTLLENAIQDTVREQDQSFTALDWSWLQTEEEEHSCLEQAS

LCK (mouse) = settings: ATP 50 µM, accession and sequence are those of the human protein
MAP2K1 (human) = MAP2K1 (human) (UniProt Q02750); settings: ATP 5 µM
MAPK10 (human) = MAPK10 (human) (UniProt P53779); settings: ATP 50 µM
MAPK11 (human) = MAPK11 (human) (UniProt Q15759); settings: ATP 20 µM
MAPK12 (human) = MAPK12 (human) (UniProt P53778); settings: ATP 5 µM
MAPK13 (human) = MAPK13 (human) (UniProt O15264); settings: ATP 5 µM
MAPK15 (human) = MAPK15 (human) (UniProt Q8TD08); settings: ATP 5 µM
MAPK3 (human) = MAPK3 (human) (UniProt P27361); settings: ATP 5 µM
MAPK9 (human) = MAPK9 (human) (UniProt P45984); settings: ATP 20 µM
MAPKAPK2 (human) = MAPKAPK2 (human) (UniProt P49137); settings: ATP 20 µM
MAPKAPK3 (human) = MAPKAPK3 (human) (UniProt Q16644); settings: ATP 20 µM
MAPKAPK5 (human) = MAPKAPK5 (human) (UniProt Q8IW41); settings: ATP 20 µM
MKNK2 (human) = MKNK2 (human) (UniProt Q9HBH9); settings: ATP 50 µM
MYLK (human) = MYLK (human) (UniProt Q15746); settings: ATP 50 µM
Sequence of MYLK (human) (Q15746 whole entry, looked up): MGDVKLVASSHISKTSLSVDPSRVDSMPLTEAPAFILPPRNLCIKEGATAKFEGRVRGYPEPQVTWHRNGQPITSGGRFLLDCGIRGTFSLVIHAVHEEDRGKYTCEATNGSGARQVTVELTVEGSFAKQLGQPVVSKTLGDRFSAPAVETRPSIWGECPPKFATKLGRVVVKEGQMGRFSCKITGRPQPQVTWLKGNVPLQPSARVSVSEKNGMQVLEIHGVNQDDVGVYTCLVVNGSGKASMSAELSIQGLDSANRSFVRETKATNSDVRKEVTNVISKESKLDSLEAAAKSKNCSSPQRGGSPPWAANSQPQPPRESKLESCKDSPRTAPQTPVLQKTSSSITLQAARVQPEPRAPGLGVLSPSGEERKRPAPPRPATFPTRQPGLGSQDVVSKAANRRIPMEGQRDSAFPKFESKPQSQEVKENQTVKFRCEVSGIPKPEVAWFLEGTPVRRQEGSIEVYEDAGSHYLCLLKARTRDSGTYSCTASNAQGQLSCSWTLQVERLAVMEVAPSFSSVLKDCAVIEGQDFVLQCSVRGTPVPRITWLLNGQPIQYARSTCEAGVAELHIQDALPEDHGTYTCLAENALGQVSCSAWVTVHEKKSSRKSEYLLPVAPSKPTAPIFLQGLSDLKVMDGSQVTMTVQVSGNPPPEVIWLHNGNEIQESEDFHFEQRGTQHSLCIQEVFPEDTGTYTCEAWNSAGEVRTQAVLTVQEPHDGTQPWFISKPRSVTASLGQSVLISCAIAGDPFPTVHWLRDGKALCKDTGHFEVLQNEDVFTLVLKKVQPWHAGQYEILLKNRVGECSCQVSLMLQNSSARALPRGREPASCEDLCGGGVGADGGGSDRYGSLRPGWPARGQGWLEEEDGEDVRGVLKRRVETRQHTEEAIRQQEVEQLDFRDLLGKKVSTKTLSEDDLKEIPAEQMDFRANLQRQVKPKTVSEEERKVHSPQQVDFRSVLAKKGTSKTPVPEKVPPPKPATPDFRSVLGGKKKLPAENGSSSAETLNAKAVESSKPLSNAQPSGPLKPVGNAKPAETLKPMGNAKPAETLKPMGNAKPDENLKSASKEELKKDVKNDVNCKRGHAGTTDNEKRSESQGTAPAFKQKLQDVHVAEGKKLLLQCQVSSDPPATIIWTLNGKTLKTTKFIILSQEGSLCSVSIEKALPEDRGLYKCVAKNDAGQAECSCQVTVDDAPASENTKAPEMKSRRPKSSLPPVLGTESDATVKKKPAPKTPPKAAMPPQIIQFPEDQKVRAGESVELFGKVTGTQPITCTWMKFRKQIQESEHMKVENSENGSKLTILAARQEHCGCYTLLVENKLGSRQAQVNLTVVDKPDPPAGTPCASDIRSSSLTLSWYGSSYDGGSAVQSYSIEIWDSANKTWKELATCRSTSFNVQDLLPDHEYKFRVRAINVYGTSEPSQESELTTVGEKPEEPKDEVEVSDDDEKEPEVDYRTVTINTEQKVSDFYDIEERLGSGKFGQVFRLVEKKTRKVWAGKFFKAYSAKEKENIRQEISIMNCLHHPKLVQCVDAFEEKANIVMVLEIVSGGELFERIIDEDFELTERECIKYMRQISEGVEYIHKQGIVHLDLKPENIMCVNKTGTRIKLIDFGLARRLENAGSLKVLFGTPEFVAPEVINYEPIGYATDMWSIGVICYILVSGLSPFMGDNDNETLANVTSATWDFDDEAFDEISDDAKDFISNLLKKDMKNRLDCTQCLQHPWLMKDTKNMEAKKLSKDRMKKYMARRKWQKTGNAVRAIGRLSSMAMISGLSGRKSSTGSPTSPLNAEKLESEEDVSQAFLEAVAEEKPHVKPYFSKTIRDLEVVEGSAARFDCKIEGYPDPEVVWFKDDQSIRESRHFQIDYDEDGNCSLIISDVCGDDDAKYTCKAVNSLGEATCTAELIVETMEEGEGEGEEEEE

NEK2 (human) = NEK2 (human) (UniProt P51955); settings: ATP 50 µM
Sequence of NEK2 (human) (P51955 whole entry, looked up): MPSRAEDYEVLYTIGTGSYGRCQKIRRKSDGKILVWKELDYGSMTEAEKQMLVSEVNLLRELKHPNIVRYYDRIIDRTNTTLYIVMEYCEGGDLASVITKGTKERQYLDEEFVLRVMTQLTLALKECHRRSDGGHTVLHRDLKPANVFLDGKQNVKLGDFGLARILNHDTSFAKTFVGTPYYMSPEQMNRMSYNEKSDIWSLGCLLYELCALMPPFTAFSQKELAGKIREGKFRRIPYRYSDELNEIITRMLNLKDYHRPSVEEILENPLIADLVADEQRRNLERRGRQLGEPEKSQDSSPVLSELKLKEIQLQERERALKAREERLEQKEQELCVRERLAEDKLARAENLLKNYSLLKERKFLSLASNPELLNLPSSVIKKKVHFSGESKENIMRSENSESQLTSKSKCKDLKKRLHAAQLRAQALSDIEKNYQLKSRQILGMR

NEK6 (human) = NEK6 (human) (UniProt Q9HC98); settings: ATP 50 µM
PAK6 (human) = PAK6 (human) (UniProt Q9NQU5); settings: ATP 20 µM
PAK7 (human) = PAK7 (human) (UniProt Q9P286); settings: ATP 20 µM
PDPK1 (human) = PDPK1 (human) (UniProt O15530)
PHKG1 or PHKG2 (human) = PHKG1 or PHKG2 (human) (UniProt P15735+Q16816); settings: ATP 50 µM
PIM1 (human) = PIM1 (human) (UniProt P11309); settings: ATP 20 µM
Sequence of PIM1 (human) (P11309 whole entry, looked up): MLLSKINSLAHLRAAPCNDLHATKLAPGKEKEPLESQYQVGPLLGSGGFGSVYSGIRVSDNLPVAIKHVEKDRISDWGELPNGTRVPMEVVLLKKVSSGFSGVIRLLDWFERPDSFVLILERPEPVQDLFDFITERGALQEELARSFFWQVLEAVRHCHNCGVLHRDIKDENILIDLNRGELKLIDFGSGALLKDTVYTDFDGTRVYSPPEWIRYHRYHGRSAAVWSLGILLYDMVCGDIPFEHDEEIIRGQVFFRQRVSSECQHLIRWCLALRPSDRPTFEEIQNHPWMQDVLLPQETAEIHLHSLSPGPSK

PKN2 (human) = PKN2 (human) (UniProt Q16513); settings: ATP 5 µM
PLK1 (human) = PLK1 (human) (UniProt P53350); settings: ATP 5 µM
PRKCG (human) = PRKCG (human) (UniProt P05129); settings: ATP 5 µM
[3] = test system: RPS6KB1 (human), P23443 [T412E]; settings: ATP 20 µM
Sequence of RPS6KB1 (human), P23443 [T412E] (P23443 whole entry T412E, looked up): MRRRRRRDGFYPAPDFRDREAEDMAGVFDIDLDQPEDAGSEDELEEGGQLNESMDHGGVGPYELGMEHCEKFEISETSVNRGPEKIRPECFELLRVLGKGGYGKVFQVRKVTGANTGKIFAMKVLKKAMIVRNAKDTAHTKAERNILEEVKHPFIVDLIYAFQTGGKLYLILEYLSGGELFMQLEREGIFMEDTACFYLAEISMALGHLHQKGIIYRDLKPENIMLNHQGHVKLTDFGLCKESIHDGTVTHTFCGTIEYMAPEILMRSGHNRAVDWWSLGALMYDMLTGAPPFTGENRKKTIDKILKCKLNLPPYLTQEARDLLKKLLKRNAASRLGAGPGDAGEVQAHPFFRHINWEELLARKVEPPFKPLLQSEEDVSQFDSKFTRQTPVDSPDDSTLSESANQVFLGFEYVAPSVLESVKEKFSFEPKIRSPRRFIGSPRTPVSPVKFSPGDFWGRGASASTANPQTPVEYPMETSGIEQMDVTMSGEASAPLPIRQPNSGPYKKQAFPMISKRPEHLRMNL

[4] = test system: SGK1 (human), O00141 [S422D]; settings: ATP 20 µM
STK3 (human) = STK3 (human) (UniProt Q13188); settings: ATP 20 µM
Sequence of STK3 (human) (Q13188 whole entry, looked up): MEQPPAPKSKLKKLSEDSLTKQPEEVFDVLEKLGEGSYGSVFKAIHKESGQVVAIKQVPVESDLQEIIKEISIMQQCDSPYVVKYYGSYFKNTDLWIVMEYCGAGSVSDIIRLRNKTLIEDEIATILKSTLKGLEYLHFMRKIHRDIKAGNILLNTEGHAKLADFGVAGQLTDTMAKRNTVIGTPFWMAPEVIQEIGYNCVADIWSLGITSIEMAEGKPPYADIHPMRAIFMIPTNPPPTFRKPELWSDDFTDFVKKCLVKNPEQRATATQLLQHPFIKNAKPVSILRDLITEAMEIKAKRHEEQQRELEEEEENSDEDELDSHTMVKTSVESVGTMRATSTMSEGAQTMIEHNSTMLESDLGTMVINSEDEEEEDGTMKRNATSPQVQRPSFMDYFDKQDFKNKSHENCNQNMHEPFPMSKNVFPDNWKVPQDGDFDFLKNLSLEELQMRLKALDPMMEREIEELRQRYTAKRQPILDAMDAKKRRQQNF

Sequence of AURKC (human) (Q9UQB9 whole entry, looked up): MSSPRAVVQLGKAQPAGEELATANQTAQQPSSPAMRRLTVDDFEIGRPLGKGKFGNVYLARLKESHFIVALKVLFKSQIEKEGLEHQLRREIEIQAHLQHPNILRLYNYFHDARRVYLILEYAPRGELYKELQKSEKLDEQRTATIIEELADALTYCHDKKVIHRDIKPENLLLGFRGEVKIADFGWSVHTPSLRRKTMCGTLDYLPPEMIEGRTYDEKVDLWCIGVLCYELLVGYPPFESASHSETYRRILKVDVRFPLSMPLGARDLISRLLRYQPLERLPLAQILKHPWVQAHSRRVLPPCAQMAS

residual activity ([1]; compound 1.0 µM): 91%
residual activity (AURKC (human); compound 1.0 µM): 97%
residual activity (CAMKK1 (human); compound 1.0 µM): 80%
residual activity (CAMKK2 (human); compound 1.0 µM): 83%
residual activity (CHEK2 (human); compound 1.0 µM): 92%
residual activity ([2]; compound 1.0 µM): 92%
residual activity (DYRK1A (human); compound 1.0 µM): 91%
residual activity (DYRK2 (human); compound 1.0 µM): 84%
residual activity (DYRK3 (human); compound 1.0 µM): 88%
residual activity (GSK3B (human); compound 1.0 µM): 83%
residual activity (HIPK3 (human); compound 1.0 µM): 108%
residual activity (IKBKB (human); compound 1.0 µM): 82%
residual activity (LCK (mouse); compound 1.0 µM): 79%
residual activity (MAP2K1 (human); compound 1.0 µM): 93%
residual activity (MAPK10 (human); compound 1.0 µM): 81%
residual activity (MAPK11 (human); compound 1.0 µM): 84%
residual activity (MAPK12 (human); compound 1.0 µM): 81%
residual activity (MAPK13 (human); compound 1.0 µM): 92%
residual activity (MAPK3 (human); compound 1.0 µM): 100%
residual activity (MAPK9 (human); compound 1.0 µM): 81%
residual activity (MAPKAPK2 (human); compound 1.0 µM): 108%
residual activity (MAPKAPK3 (human); compound 1.0 µM): 104%
residual activity (MAPKAPK5 (human); compound 1.0 µM): 91%
residual activity (MKNK2 (human); compound 1.0 µM): 102%
residual activity (MYLK (human); compound 1.0 µM): 107%
residual activity (NEK2 (human); compound 1.0 µM): 82%
residual activity (NEK6 (human); compound 1.0 µM): 95%
residual activity (PAK6 (human); compound 1.0 µM): 89%
residual activity (PAK7 (human); compound 1.0 µM): 89%
residual activity (PDPK1 (human); compound 1.0 µM, ATP 20 µM): 85%
residual activity (PDPK1 (human); compound 1.0 µM, ATP 50 µM): 92%
residual activity (PHKG1 or PHKG2 (human); compound 1.0 µM): 95%
residual activity (PIM1 (human); compound 1.0 µM): 91%
residual activity (PKN2 (human); compound 1.0 µM): 79%
residual activity (PLK1 (human); compound 1.0 µM): 78%
residual activity (PRKCG (human); compound 1.0 µM): 92%
residual activity ([3]; compound 1.0 µM): 106%
residual activity ([4]; compound 1.0 µM): 93%
residual activity (STK3 (human); compound 1.0 µM): 90%
SMILES: CO[C@H]1CC2CC[C@@H](C)[C@@](O)(O2)C(=O)C(=O)N2CCCC[C@H]2C(=O)OC([C@H](C)C[C@@H]2CC[C@@H](O)[C@H](OC)C2)CC(=O)[C@H](C)/C=C(\C)[C@@H](O)[C@@H](OC)C(=O)[C@H](C)C[C@H](C)/C=C/C=C/C=C/1C (stereo not given in full)
residual activity (MAPK15 (human); compound 1.0 µM): 97%

residual activity ([1]; compound 1.0 µM): 97%
residual activity (AURKC (human); compound 1.0 µM): 20%
residual activity (CAMKK1 (human); compound 1.0 µM): 68%
residual activity (CAMKK2 (human); compound 1.0 µM): 41%
residual activity (CHEK2 (human); compound 1.0 µM): 44%
residual activity ([2]; compound 1.0 µM): 57%
residual activity (DYRK1A (human); compound 1.0 µM): 40%
residual activity (DYRK2 (human); compound 1.0 µM): 19%
residual activity (DYRK3 (human); compound 1.0 µM): 30%
residual activity (GSK3B (human); compound 1.0 µM): 81%
residual activity (HIPK3 (human); compound 1.0 µM): 56%
residual activity (IKBKB (human); compound 1.0 µM): 49%
residual activity (LCK (mouse); compound 1.0 µM): 68%
residual activity (MAP2K1 (human); compound 1.0 µM): 58%
residual activity (MAPK10 (human); compound 1.0 µM): 47%
residual activity (MAPK11 (human); compound 1.0 µM): 106%
residual activity (MAPK12 (human); compound 1.0 µM): 86%
residual activity (MAPK13 (human); compound 1.0 µM): 82%
residual activity (MAPK3 (human); compound 1.0 µM): 89%
residual activity (MAPK9 (human); compound 1.0 µM): 24%
residual activity (MAPKAPK2 (human); compound 1.0 µM): 102%
residual activity (MAPKAPK3 (human); compound 1.0 µM): 103%
residual activity (MAPKAPK5 (human); compound 1.0 µM): 58%
residual activity (MKNK2 (human); compound 1.0 µM): 59%
residual activity (MYLK (human); compound 1.0 µM): 34%
residual activity (NEK2 (human); compound 1.0 µM): 78%
residual activity (NEK6 (human); compound 1.0 µM): 102%
residual activity (PAK6 (human); compound 1.0 µM): 72%
residual activity (PAK7 (human); compound 1.0 µM): 82%
residual activity (PDPK1 (human); compound 1.0 µM, ATP 20 µM): 56%
residual activity (PDPK1 (human); compound 1.0 µM, ATP 50 µM): 26%
residual activity (PHKG1 or PHKG2 (human); compound 1.0 µM): 31%
residual activity (PIM1 (human); compound 1.0 µM): 39%
residual activity (PKN2 (human); compound 1.0 µM): 70%
residual activity (PLK1 (human); compound 1.0 µM): 80%
residual activity (PRKCG (human); compound 1.0 µM): 106%
residual activity ([3]; compound 1.0 µM): 85%
residual activity ([4]; compound 1.0 µM): 28%
residual activity (STK3 (human); compound 1.0 µM): 31%
SMILES: O=C1c2ccccc2-c2n[nH]c3cccc1c23
residual activity (MAPK15 (human); compound 1.0 µM): 43%

residual activity ([1]; compound 0.01 µM): 79%
residual activity (AURKC (human); compound 0.01 µM): 71%
residual activity (CAMKK1 (human); compound 0.01 µM): 58%
residual activity (CAMKK2 (human); compound 0.01 µM): 21%
residual activity (CHEK2 (human); compound 0.01 µM): 96%
residual activity ([2]; compound 0.01 µM): 92%
residual activity (DYRK1A (human); compound 0.01 µM): 90%
residual activity (DYRK2 (human); compound 0.01 µM): 92%
residual activity (DYRK3 (human); compound 0.01 µM): 84%
residual activity (GSK3B (human); compound 0.01 µM): 77%
residual activity (HIPK3 (human); compound 0.01 µM): 116%
residual activity (IKBKB (human); compound 0.01 µM): 86%
residual activity (LCK (mouse); compound 0.01 µM): 50%
residual activity (MAP2K1 (human); compound 0.01 µM): 75%
residual activity (MAPK10 (human); compound 0.01 µM): 107%
residual activity (MAPK11 (human); compound 0.01 µM): 105%
residual activity (MAPK12 (human); compound 0.01 µM): 104%
residual activity (MAPK13 (human); compound 0.01 µM): 94%
residual activity (MAPK3 (human); compound 0.01 µM): 112%
residual activity (MAPK9 (human); compound 0.01 µM): 92%
residual activity (MAPKAPK2 (human); compound 0.01 µM): 75%
residual activity (MAPKAPK3 (human); compound 0.01 µM): 107%
residual activity (MAPKAPK5 (human); compound 0.01 µM): 83%
residual activity (MKNK2 (human); compound 0.01 µM): 103%
residual activity (MYLK (human); compound 0.01 µM): 83%
residual activity (NEK2 (human); compound 0.01 µM): 85%
residual activity (NEK6 (human); compound 0.01 µM): 104%
residual activity (PAK6 (human); compound 0.01 µM): 35%
residual activity (PAK7 (human); compound 0.01 µM): 36%
residual activity (PDPK1 (human); compound 0.01 µM, ATP 20 µM): 2%
residual activity (PDPK1 (human); compound 0.01 µM, ATP 50 µM): 83%
residual activity (PHKG1 or PHKG2 (human); compound 0.01 µM): 5%
residual activity (PIM1 (human); compound 0.01 µM): 52%
residual activity (PKN2 (human); compound 0.01 µM): 10%
residual activity (PLK1 (human); compound 0.01 µM): 76%
residual activity (PRKCG (human); compound 0.01 µM): 78%
residual activity ([3]; compound 0.01 µM): 96%
residual activity ([4]; compound 0.01 µM): 83%
residual activity (STK3 (human); compound 0.01 µM): 2%
SMILES: CN[C@@H]1C[C@@H]2O[C@@](C)([C@@H]1OC)n1c3ccccc3c3c4c(c5c6ccccc6n2c5c31)C(=O)N[C@@H]4O
residual activity (MAPK15 (human); compound 0.01 µM): 92%
